# Test system: adult fleas (C. felis)
# Experiment: In vitro membrane feeding exposure to assess flea reproduction
# Design: species or system Ctenocephalides felis
# Details: for Effect on hatching of larvae: flea groups able to lay eggs, all concentrations
# Description: A membrane feeding method [Wade S E, Georgi J R. Survival and reproduction of artificially fed cat fleas, Ctenocephalides felis Bouché (Siphonaptera: Pulicidae). J Med Entomol 1988, 25: 186-190.] was modified to assess the impact of fluralaner exposure on flea reproduction. Defibrinated sheep blood was prepared in a series of dilutions with fluralaner to obtain concentrations between 50.0 and 0.09 ng/mL. These test solutions were prepared twice and each preparation was tested in duplicate resulting in a total of 4 replicates per concentration, along with a fluralaner negative solvent control (a solvent concentration equivalent to that of the highest concentrated fluralaner test solution) and an untreated control.
# Unfed adult fleas (C. felis; 20 males and 20 females) were placed into a plastic unit that was then closed with a gauze lid. A grid inside the plastic unit divided the unit into 2 chambers, an upper chamber for flea feeding and a lower chamber for egg collection. Test or control blood preparations (2 ml) were placed in an artificial membrane closed glass tube that was then placed on the plastic unit as the food source. Feeding units were incubated (38° C. and 60% RH) for 10 days. Test and negative control blood preparations were freshly prepared and exchanged (on days 1, 3, 5, and 8) to permit continuous flea feeding. Fleas were transferred into fresh plastic units on Days 5 and 8 to facilitate egg collection. Collected eggs were mixed with flea nourishment medium and incubated (28° C. and 80% RH) in darkness for 22 (±3) days to enable flea development. Parameters recorded were flea survival, oviposition control, egg hatchability, pupa control, flea-emergence control and reproduction inhibition.
# [1] = eggs of parent fleas fed 0.09 ng/mL in blood, exposure day 9
# [2] = eggs of parent fleas fed 0.09 ng/mL in blood, exposure day 10
# [3] = eggs of parent fleas fed 0.19 ng/mL in blood, exposure day 3
# [4] = eggs of parent fleas fed 0.19 ng/mL in blood, exposure day 4
# [5] = eggs of parent fleas fed 0.19 ng/mL in blood, exposure day 5
# [6] = eggs of parent fleas fed 0.19 ng/mL in blood, exposure day 8
# [7] = eggs of parent fleas fed 0.19 ng/mL in blood, exposure day 9
# [8] = eggs of parent fleas fed 0.19 ng/mL in blood, exposure day 10
# [9] = eggs of parent fleas fed 0.39 ng/mL in blood, exposure day 3
# [10] = eggs of parent fleas fed 0.39 ng/mL in blood, exposure day 4
# [11] = eggs of parent fleas fed 0.39 ng/mL in blood, exposure day 5
# [12] = eggs of parent fleas fed 0.39 ng/mL in blood, exposure day 8
# [13] = eggs of parent fleas fed 0.39 ng/mL in blood, exposure day 9
# [14] = eggs of parent fleas fed 0.39 ng/mL in blood, exposure day 10
# [15] = eggs of parent fleas fed 0.78 ng/mL in blood, exposure day 3
# [16] = eggs of parent fleas fed 0.78 ng/mL in blood, exposure day 4
# [17] = eggs of parent fleas fed 0.78 ng/mL in blood, exposure day 5
# [18] = eggs of parent fleas fed 0.78 ng/mL in blood, exposure day 8
# [19] = eggs of parent fleas fed 0.78 ng/mL in blood, exposure day 9
# [20] = eggs of parent fleas fed 0.78 ng/mL in blood, exposure day 10
# [21] = eggs of parent fleas fed 1.56 ng/mL in blood, exposure day 3
# [22] = eggs of parent fleas fed 1.56 ng/mL in blood, exposure day 4
# [23] = eggs of parent fleas fed 1.56 ng/mL in blood, exposure day 5
# [24] = eggs of parent fleas fed 1.56 ng/mL in blood, exposure day 8
# [25] = eggs of parent fleas fed 1.56 ng/mL in blood, exposure day 9
# [26] = eggs of parent fleas fed 1.56 ng/mL in blood, exposure day 10
# [27] = eggs of parent fleas fed 3.13 ng/mL in blood, exposure day 3
# [28] = eggs of parent fleas fed 3.13 ng/mL in blood, exposure day 4
# [29] = eggs of parent fleas fed 3.13 ng/mL in blood, exposure day 5
# [30] = eggs of parent fleas fed 3.13 ng/mL in blood, exposure day 8
# [31] = eggs of parent fleas fed 3.13 ng/mL in blood, exposure day 9
# [32] = eggs of parent fleas fed 3.13 ng/mL in blood, exposure day 10
# [33] = eggs of parent fleas fed 6.25 ng/mL in blood, exposure day 3
# [34] = eggs of parent fleas fed 6.25 ng/mL in blood, exposure day 4
# [35] = eggs of parent fleas fed 6.25 ng/mL in blood, exposure day 5
# [36] = eggs of parent fleas fed 6.25 ng/mL in blood, exposure day 8
# [37] = eggs of parent fleas fed 6.25 ng/mL in blood, exposure day 9
# [38] = eggs of parent fleas fed 6.25 ng/mL in blood, exposure day 10
# [39] = eggs of parent fleas fed 12.5 ng/mL in blood, exposure day 3
# [40] = eggs of parent fleas fed 12.5 ng/mL in blood, exposure day 8
# [41] = eggs of parent fleas fed 12.5 ng/mL in blood, exposure day 9
smiles,measurement,setting,value
"Cc1cc(C2=NOC(c3cc(Cl)cc(Cl)c3)(C(F)(F)F)C2)ccc1C(=O)NCC(=O)NCC(F)(F)F (centres unmarked) [fluralaner, 4-[5-(3,5-Dichlorophenyl)-5-trifluoromethyl-4,5-dihydroisoxazol-3-yl]-2-methyl-N-[(2,2,2-trifluoro-ethylcarbamoyl)-methyl]-benzamide]",Pupal Development Control,"eggs of parent fleas fed 0.09 ng/mL in blood, exposure day 8",0%
same,Larval Emergence,[1],yes
same,Pupal Development Control,[1],5.9%
same,Larval Emergence,[2],yes
same,Pupal Development Control,[2],2.9%
same,Pupal Development Control,"eggs of parent fleas fed 0.19 ng/mL in blood, arithmetic mean of exposure days",3.1%
same,Larval Emergence,[3],yes
same,Pupal Development Control,[3],8.8%
same,Larval Emergence,[4],yes
same,Pupal Development Control,[4],0.2%
same,Larval Emergence,[5],yes
same,Pupal Development Control,[5],6.8%
same,Larval Emergence,[6],yes
same,Pupal Development Control,[6],0%
same,Larval Emergence,[7],yes
same,Pupal Development Control,[7],2.7%
same,Larval Emergence,[8],yes
same,Pupal Development Control,[8],0%
same,Pupal Development Control,"eggs of parent fleas fed 0.39 ng/mL in blood, arithmetic mean of exposure days",3.6%
same,Larval Emergence,[9],yes
same,Pupal Development Control,[9],9.8%
same,Larval Emergence,[10],yes
same,Pupal Development Control,[10],0%
same,Larval Emergence,[11],yes
same,Pupal Development Control,[11],1.5%
same,Larval Emergence,[12],yes
same,Pupal Development Control,[12],3.3%
same,Larval Emergence,[13],yes
same,Pupal Development Control,[13],6.3%
same,Larval Emergence,[14],yes
same,Pupal Development Control,[14],0.8%
same,Pupal Development Control,"eggs of parent fleas fed 0.78 ng/mL in blood, arithmetic mean of exposure days",12.1%
same,Larval Emergence,[15],yes
same,Pupal Development Control,[15],7.5%
same,Larval Emergence,[16],yes
same,Pupal Development Control,[16],11.4%
same,Larval Emergence,[17],yes
same,Pupal Development Control,[17],16.7%
same,Larval Emergence,[18],yes
same,Pupal Development Control,[18],10.8%
same,Larval Emergence,[19],yes
same,Pupal Development Control,[19],11.9%
same,Larval Emergence,[20],yes
same,Pupal Development Control,[20],14.5%
same,Pupal Development Control,"eggs of parent fleas fed 1.56 ng/mL in blood, arithmetic mean of exposure days",35.1%
same,Larval Emergence,[21],yes
same,Pupal Development Control,[21],35.3%
same,Larval Emergence,[22],yes
same,Pupal Development Control,[22],36.3%
same,Larval Emergence,[23],yes
same,Pupal Development Control,[23],34.6%
same,Larval Emergence,[24],yes
same,Pupal Development Control,[24],35.5%
same,Larval Emergence,[25],yes
same,Pupal Development Control,[25],41.6%
same,Larval Emergence,[26],yes
same,Pupal Development Control,[26],27.2%
same,Pupal Development Control,"eggs of parent fleas fed 3.13 ng/mL in blood, arithmetic mean of exposure days",64.5%
same,Larval Emergence,[27],yes
same,Pupal Development Control,[27],66.3%
same,Larval Emergence,[28],yes
same,Pupal Development Control,[28],68.9%
same,Larval Emergence,[29],yes
same,Pupal Development Control,[29],61.7%
same,Larval Emergence,[30],yes
same,Pupal Development Control,[30],70.3%
same,Larval Emergence,[31],yes
same,Pupal Development Control,[31],62.1%
same,Larval Emergence,[32],yes
same,Pupal Development Control,[32],57.4%
same,Pupal Development Control,"eggs of parent fleas fed 6.25 ng/mL in blood, arithmetic mean of exposure days",88.7%
same,Larval Emergence,[33],yes
same,Pupal Development Control,[33],90.2%
same,Larval Emergence,[34],yes
same,Pupal Development Control,[34],92.4%
same,Larval Emergence,[35],yes
same,Pupal Development Control,[35],87.3%
same,Larval Emergence,[36],yes
same,Pupal Development Control,[36],86.4%
same,Larval Emergence,[37],yes
same,Pupal Development Control,[37],89.9%
same,Larval Emergence,[38],yes
same,Pupal Development Control,[38],86.0%
same,Pupal Development Control,"eggs of parent fleas fed 12.5 ng/mL in blood, arithmetic mean of exposure days",85.1%
same,Larval Emergence,[39],no
same,Pupal Development Control,[39],100%
same,Larval Emergence,[40],yes
same,Pupal Development Control,[40],55.2%
same,Larval Emergence,[41],yes
same,Pupal Development Control,[41],100%
same,Effect on hatching of larvae,,does not affect the hatching of larvae
same,Effect on hatching of larvae,listed as Fluralaner,did not affect the hatching of larvae
same,Adult Flea Emergence Control,"parent fleas fed 0.09 ng/mL in blood, arithmetic mean of exposure days",0.3%
same,Adult Flea Emergence Control,"parent fleas fed 0.09 ng/mL in blood, exposure day 3",1.1%
same,Adult Flea Emergence Control,"parent fleas fed 0.09 ng/mL in blood, exposure day 4",0.5%
same,Adult Flea Emergence Control,"parent fleas fed 0.09 ng/mL in blood, exposure day 5",0%
same,Adult Flea Emergence Control,"parent fleas fed 0.09 ng/mL in blood, exposure day 8",0%
same,Adult Flea Emergence Control,"parent fleas fed 0.09 ng/mL in blood, exposure day 9",0%
same,Adult Flea Emergence Control,"parent fleas fed 0.09 ng/mL in blood, exposure day 10",0%
same,Adult Flea Emergence Control,"parent fleas fed 0.19 ng/mL in blood, arithmetic mean of exposure days",2.2%
same,Adult Flea Emergence Control,"parent fleas fed 0.19 ng/mL in blood, exposure day 3",4.6%
same,Adult Flea Emergence Control,"parent fleas fed 0.19 ng/mL in blood, exposure day 4",0%
same,Adult Flea Emergence Control,"parent fleas fed 0.19 ng/mL in blood, exposure day 5",1.3%
same,Adult Flea Emergence Control,"parent fleas fed 0.19 ng/mL in blood, exposure day 8",0.8%
same,Adult Flea Emergence Control,"parent fleas fed 0.19 ng/mL in blood, exposure day 9",6.7%
same,Adult Flea Emergence Control,"parent fleas fed 0.19 ng/mL in blood, exposure day 10",0%
same,Adult Flea Emergence Control,"parent fleas fed 0.39 ng/mL in blood, arithmetic mean of exposure days",1.1%
same,Adult Flea Emergence Control,"parent fleas fed 0.39 ng/mL in blood, exposure day 3",0%
same,Adult Flea Emergence Control,"parent fleas fed 0.39 ng/mL in blood, exposure day 4",0%
same,Adult Flea Emergence Control,"parent fleas fed 0.39 ng/mL in blood, exposure day 5",0%
same,Adult Flea Emergence Control,"parent fleas fed 0.39 ng/mL in blood, exposure day 8",1.6%
same,Adult Flea Emergence Control,"parent fleas fed 0.39 ng/mL in blood, exposure day 9",5.2%
same,Adult Flea Emergence Control,"parent fleas fed 0.39 ng/mL in blood, exposure day 10",0%
same,Adult Flea Emergence Control,"parent fleas fed 0.78 ng/mL in blood, arithmetic mean of exposure days",1.5%
same,Adult Flea Emergence Control,"parent fleas fed 0.78 ng/mL in blood, exposure day 3",3.8%
same,Adult Flea Emergence Control,"parent fleas fed 0.78 ng/mL in blood, exposure day 4",0%
same,Adult Flea Emergence Control,"parent fleas fed 0.78 ng/mL in blood, exposure day 5",0%
same,Adult Flea Emergence Control,"parent fleas fed 0.78 ng/mL in blood, exposure day 8",3.1%
same,Adult Flea Emergence Control,"parent fleas fed 0.78 ng/mL in blood, exposure day 9",1.8%
same,Adult Flea Emergence Control,"parent fleas fed 0.78 ng/mL in blood, exposure day 10",0%
same,Adult Flea Emergence Control,"parent fleas fed 1.56 ng/mL in blood, arithmetic mean of exposure days",1.7%
same,Adult Flea Emergence Control,"parent fleas fed 1.56 ng/mL in blood, exposure day 3",0%
same,Adult Flea Emergence Control,"parent fleas fed 1.56 ng/mL in blood, exposure day 4",0%
same,Adult Flea Emergence Control,"parent fleas fed 1.56 ng/mL in blood, exposure day 5",0%
same,Adult Flea Emergence Control,"parent fleas fed 1.56 ng/mL in blood, exposure day 8",10.2%
same,Adult Flea Emergence Control,"parent fleas fed 1.56 ng/mL in blood, exposure day 9",0%
same,Adult Flea Emergence Control,"parent fleas fed 1.56 ng/mL in blood, exposure day 10",0%
same,Adult Flea Emergence Control,"parent fleas fed 3.13 ng/mL in blood, arithmetic mean of exposure days",5.9%
same,Adult Flea Emergence Control,"parent fleas fed 3.13 ng/mL in blood, exposure day 3",4.4%
same,Adult Flea Emergence Control,"parent fleas fed 3.13 ng/mL in blood, exposure day 4",11.9%
same,Adult Flea Emergence Control,"parent fleas fed 3.13 ng/mL in blood, exposure day 5",3.2%
same,Adult Flea Emergence Control,"parent fleas fed 3.13 ng/mL in blood, exposure day 8",8.6%
same,Adult Flea Emergence Control,"parent fleas fed 3.13 ng/mL in blood, exposure day 9",7.5%
same,Adult Flea Emergence Control,"parent fleas fed 3.13 ng/mL in blood, exposure day 10",0%
same,Adult Flea Emergence Control,"parent fleas fed 6.25 ng/mL in blood, arithmetic mean of exposure days",11.5%
same,Adult Flea Emergence Control,"parent fleas fed 6.25 ng/mL in blood, exposure day 3",29.2%
same,Adult Flea Emergence Control,"parent fleas fed 6.25 ng/mL in blood, exposure day 4",0%
same,Adult Flea Emergence Control,"parent fleas fed 6.25 ng/mL in blood, exposure day 5",0%
same,Adult Flea Emergence Control,"parent fleas fed 6.25 ng/mL in blood, exposure day 8",9.2%
same,Adult Flea Emergence Control,"parent fleas fed 6.25 ng/mL in blood, exposure day 9",30.8%
same,Adult Flea Emergence Control,"parent fleas fed 6.25 ng/mL in blood, exposure day 10",0%
same,Adult Flea Emergence Control,"parent fleas fed 12.5 ng/mL in blood, arithmetic mean of exposure days",100%
same,Adult Flea Emergence Control,"parent fleas fed 12.5 ng/mL in blood, exposure day 8",100%
